Values of other authors, collected in US8828453B2, “Herbal-based compositions for alleviating symptoms associated with autism” (priority 2010, dated 2014).

System: newborn murine brain

Q: Which “protection against excitotoxic damage” value does the source give for `CCCCC/C=C\C/C=C\C/C=C\C/C=C\CCCC(=O)NCCO` [anandamide] here?
A: Its value is “protected the newborn murine brain against excitotoxic damage”.
